Series [1] has as its system Staphylococcus aureus. The series is described as follows: Antimicrobial activity against Staphylococcus aureus. The class given is functional.
Series [2] relates to Escherichia coli. The series is described as follows: Antimicrobial activity against Escherichia coli. In kind it is functional.
The conditions of series [3]: erythrocyte.

This is an account of results in ChEMBL document CHEMBL1671744 (Antimicrob Agents Chemother, 2010).

In brackets after ≈: the same amount, converted by molar mass. Where a SMILES comes first, the peptide text is derived from it. [ ]: non-standard residue; d: D form. The star is where a group is joined. Nphe = O=C(O)CNCc1ccccc1; OBn = c1ccc(CO*)cc1

As a reminder, the MIC is the lowest concentration that inhibits growth of the organism. As to `CC[C@H](C)[C@H](NC(=O)[C@H](CCCCN)NC(=O)[C@@H](NC(=O)[C@H](CCC(N)=O)NC(=O)[C@@H](N)CCCNC(=N)N)[C@@H](C)CC)C(=O)N[C@@H](Cc1c[nH]c2ccccc12)C(=O)N[C@@H](Cc1ccccc1)C(=O)N[C@@H](CCC(N)=O)C(=O)N[C@@H](CC(N)=O)C(=O)N[C@@H](CCCNC(=N)N)C(=O)N[C@@H](CCCNC(=N)N)C(=O)N[C@@H](CCSC)C(=O)N[C@@H](CCCCN)C(=O)N[C@@H](Cc1c[nH]c2ccccc12)C(=O)N[C@@H](CCCCN)C(=O)N[C@@H](CCCCN)C(=O)NCCCC[C@H](NC(=O)[C@H](CCCCN)NC(=O)[C@H](CCCCN)NC(=O)[C@H](Cc1c[nH]c2ccccc12)NC(=O)[C@H](CCCCN)NC(=O)[C@H](CCSC)NC(=O)[C@H](CCCNC(=N)N)NC(=O)[C@H](CCCNC(=N)N)NC(=O)[C@H](CC(N)=O)NC(=O)[C@H](CCC(N)=O)NC(=O)[C@H](Cc1ccccc1)NC(=O)[C@H](Cc1c[nH]c2ccccc12)NC(=O)[C@@H](NC(=O)[C@H](CCCCN)NC(=O)[C@@H](NC(=O)[C@H](CCC(N)=O)NC(=O)[C@@H](N)CCCNC(=N)N)[C@@H](C)CC)[C@@H](C)CC)C(N)=O`, the MIC in series [1] turned out to be 1 µM (≈ 4.6 µg/mL); in series [2], 2 µM (≈ 9.21 µg/mL). The MHC in series [3] was 25 µM. The compound `CC[C@H](C)[C@H](NC(=O)[C@H](C)NC(=O)[C@H](CCCCN)NC(=O)[C@H](CC(C)C)NC(=O)[C@H](C)NC(=O)[C@H](CCCCN)NC(=O)[C@H](Cc1cnc[nH]1)NC(=O)[C@H](CC(C)C)NC(=O)[C@@H](NC(=O)[C@H](CCCCN)NC(=O)[C@H](CCCCN)NC(=O)[C@H](CCCCN)NC(=O)[C@H](C)NC(=O)[C@H](CO)NC(=O)[C@H](CCCCN)NC(=O)[C@H](Cc1ccccc1)NC(=O)[C@@H](NC(=O)[C@H](CCCCN)NC(=O)[C@H](CC(C)C)NC(=O)[C@H](Cc1ccccc1)NC(=O)[C@H](CO)NC(=O)[C@H](CCCCN)NC(=O)[C@H](Cc1c[nH]c2ccccc12)NC(=O)[C@H](CCCCN)NC(C)=O)[C@@H](C)O)C(C)C)C(=O)N[C@@H](CO)C(=O)N[C@@H](CO)C(N)=O` (Ac-KWKSFLKTFKSAKKKVLHKALKAISS-NH2) yielded an MIC in series [2] of 2.8 µM (≈ 8.53 µg/mL). This compound also showed an MHC in series [3] of under 2.8 µM. `N=C(N)NCCC[C@H](NC(=O)[C@@H](N)Cc1c[nH]c2ccccc12)C(=O)N[C@@H](Cc1c[nH]c2ccccc12)C(=O)OCc1ccccc1` (H-Trp-Arg-Trp-OBn) showed an MHC in series [3] of over 500 µg/mL. On to `CC[C@H](C)[C@H](NC(=O)[C@H](CCCCN)NC(=O)[C@H](CC(C)C)NC(=O)[C@H](C)NC(=O)[C@@H](NC(=O)[C@H](Cc1cnc[nH]1)NC(=O)[C@H](CC(C)C)NC(=O)[C@@H](NC(=O)[C@@H](NC(=O)[C@H](CCCCN)NC(=O)[C@@H](NC(=O)[C@H](C)NC(=O)[C@H](CO)NC(=O)[C@H](CCCCN)NC(=O)[C@H](Cc1ccccc1)NC(=O)[C@@H](NC(=O)[C@H](CCCCN)NC(=O)[C@H](CC(C)C)NC(=O)[C@H](Cc1ccccc1)NC(=O)[C@H](CO)NC(=O)[C@H](CCCCN)NC(=O)[C@H](Cc1c[nH]c2ccccc12)NC(=O)[C@H](CCCCN)NC(C)=O)[C@@H](C)O)C(C)C)[C@@H](C)O)C(C)C)[C@@H](C)O)C(=O)N[C@@H](CO)C(=O)N[C@@H](CO)C(N)=O` (Ac-KWKSFLKTFKSAVKTVLHTALKISS-NH2), for which the MIC in series [2] stood at 0.89 µM (≈ 2.57 µg/mL). In series [3], this compound came in with an MHC of over 88.6 µM. As to `CC[C@H](C)[C@H](NC(=O)[C@H](C)NC(=O)[C@H](CCCCN)NC(=O)[C@H](CC(C)C)NC(=O)[C@H](C)NC(=O)[C@@H](NC(=O)[C@H](Cc1c[nH]cn1)NC(=O)[C@H](CC(C)C)NC(=O)[C@@H](NC(=O)[C@@H](NC(=O)[C@H](CCCCN)NC(=O)[C@@H](NC(=O)[C@H](C)NC(=O)[C@H](CO)NC(=O)[C@H](CCCCN)NC(=O)[C@H](Cc1ccccc1)NC(=O)[C@@H](NC(=O)[C@H](CCCCN)NC(=O)[C@H](CC(C)C)NC(=O)[C@H](Cc1ccccc1)NC(=O)[C@H](CO)NC(=O)[C@H](CCCCN)NC(=O)[C@H](Cc1c[nH]c2ccccc12)NC(=O)[C@H](CCCCN)NC(C)=O)[C@@H](C)O)C(C)C)[C@@H](C)O)C(C)C)[C@@H](C)O)C(=O)N[C@@H](CO)C(=O)N[C@@H](CO)C(N)=O` (Ac-KWKSFLKTFKSAVKTVLHTALKAISS-NH2), the MHC in series [3] was found to be 5.2 µM. In the case of `NC(N)=NCCC[C@H](NC(=O)[C@@H](N)Cc1c[nH]c2ccccc12)C(=O)N[C@@H](Cc1c[nH]c2ccccc12)C(=O)OCc1ccccc1` (H-Trp-Arg-Trp-OBn), the MIC in series [1] was 9 µM (≈ 5.73 µg/mL); in series [2], 140 µM (≈ 89.1 µg/mL). Take `CC[C@H](C)[C@H](NC(=O)CN)C(=O)NCC(=O)N[C@@H](C)C(=O)N[C@H](C(=O)N(CC(=O)N[C@@H](CCCCN)C(=O)N[C@H](C(=O)N[C@@H](CC(C)C)C(=O)N[C@H](C(=O)N[C@H](C(=O)NCC(=O)N(CC(=O)N1CCC[C@H]1C(=O)N[C@@H](C)C(=O)N[C@@H](CC(C)C)C(=O)N[C@H](C(=O)N[C@@H](CO)C(=O)N[C@@H](Cc1c[nH]c2ccccc12)C(=O)N(CC(=O)N[C@@H](CCCCN)C(=O)N[C@@H](CCCNC(=N)N)C(=O)N[C@@H](CCCCN)C(=O)N[C@@H](CCCNC(=N)N)C(=O)N[C@@H](CCC(N)=O)C(=O)N[C@@H](CCC(N)=O)C(=O)O)Cc1ccccc1)[C@@H](C)CC)Cc1ccccc1)[C@@H](C)O)[C@@H](C)O)C(C)C)Cc1ccccc1)C(C)C` [MELITTIN PEPTOID F] (H-GIGAV[Nphe]KVLTTG[Nphe]PALISW[Nphe]KRKRQQ-OH): the MIC in series [1] turned out to be 2 µM (≈ 5.9 µg/mL); in series [2], 4 µM (≈ 11.8 µg/mL). For the same compound, in series [3], the MHC is over 100 µM.

In the case of `CC[C@@H](C)[C@@H](NC(=O)[C@@H](C)NC(=O)[C@@H](CCCCN)NC(=O)[C@@H](CC(C)C)NC(=O)[C@@H](C)NC(=O)[C@H](NC(=O)[C@@H](Cc1c[nH]cn1)NC(=O)[C@@H](CC(C)C)NC(=O)[C@H](NC(=O)[C@H](NC(=O)[C@@H](CCCCN)NC(=O)[C@@H](CCCCN)NC(=O)[C@@H](C)NC(=O)[C@@H](CO)NC(=O)[C@@H](CCCCN)NC(=O)[C@@H](Cc1ccccc1)NC(=O)[C@H](NC(=O)[C@@H](CCCCN)NC(=O)[C@@H](CC(C)C)NC(=O)[C@@H](Cc1ccccc1)NC(=O)[C@@H](CO)NC(=O)[C@@H](CCCCN)NC(=O)[C@@H](Cc1c[nH]c2ccccc12)NC(=O)[C@@H](CCCCN)NC(C)=O)[C@H](C)O)[C@H](C)O)C(C)C)[C@H](C)O)C(=O)N[C@H](CO)C(=O)N[C@H](CO)C(N)=O`, in series [3], the MHC was over 88.6 µM. The compound `CC[C@H](C)[C@H](NC(=O)[C@H](C)NC(=O)[C@H](CCCCN)NC(=O)[C@H](CC(C)C)NC(=O)[C@H](C)NC(=O)[C@@H](NC(=O)[C@H](Cc1cnc[nH]1)NC(=O)[C@H](CC(C)C)NC(=O)[C@@H](NC(=O)[C@@H](NC(=O)[C@H](CCCCN)NC(=O)[C@H](NC(=O)[C@H](C)NC(=O)[C@H](CO)NC(=O)[C@H](CCCCN)NC(=O)[C@H](Cc1ccccc1)NC(=O)[C@@H](NC(=O)[C@H](CCCCN)NC(=O)[C@H](CC(C)C)NC(=O)[C@H](Cc1ccccc1)NC(=O)[C@H](CO)NC(=O)[C@H](CCCCN)NC(=O)[C@H](Cc1c[nH]c2ccccc12)NC(=O)[C@H](CCCCN)NC(C)=O)[C@@H](C)O)C(C)C)[C@@H](C)O)C(C)C)[C@@H](C)O)C(=O)N[C@@H](CO)C(=O)N[C@@H](CO)C(N)=O` (Ac-KWKSFLKTFKSA[dV]KTVLHTALKAISS-NH2) came in with an MIC in series [2] of 1.1 µM (≈ 3.26 µg/mL). In turn, `CC[C@H](C)[C@H](NC(=O)[C@H](C)NC(=O)[C@H](CCCCN)NC(=O)[C@H](CC(C)C)NC(=O)[C@H](C)NC(=O)[C@@H](NC(=O)[C@H](Cc1cnc[nH]1)NC(=O)[C@H](CC(C)C)NC(=O)[C@@H](NC(=O)[C@@H](NC(=O)[C@H](CCCCN)NC(=O)[C@@H](NC(=O)[C@H](C)NC(=O)[C@H](CO)NC(=O)[C@H](CCCCN)NC(=O)[C@H](Cc1ccccc1)NC(=O)[C@@H](NC(=O)[C@H](CCCCN)NC(=O)[C@H](CC(C)C)NC(=O)[C@H](Cc1ccccc1)NC(=O)[C@H](CO)NC(=O)[C@H](CCCCN)NC(=O)[C@H](Cc1c[nH]c2ccccc12)NC(=O)[C@H](CCCCN)NC(C)=O)[C@@H](C)O)C(C)C)[C@@H](C)O)C(C)C)[C@@H](C)O)C(=O)N[C@@H](CO)C(=O)N[C@@H](CO)C(N)=O` (Ac-KWKSFLKTFKSAVKTVLHTALKAISS-NH2) registered an MIC in series [2] of 2.1 µM (≈ 6.22 µg/mL).

In series [3], `N=C(N)NCCC[C@H](NC(=O)[C@@H](N)Cc1c[nH]c2ccccc12)C(=O)N[C@@H](Cc1c[nH]c2ccccc12)C(N)=O` (H-Trp-Arg-Trp-NH2) came in with an MHC of over 500 µg/mL. In the case of `NC(=O)[C@H](Cc1c[nH]c2ccccc12)NC(=O)[C@H](CCCN=C(N)N)NC(=O)[C@@H](N)Cc1c[nH]c2ccccc12` (H-Trp-Arg-Trp-NH2), the MIC is 218 µM (≈ 119 µg/mL) in series [1] and over 436 µM in series [2]. In series [3], `CC[C@H](C)[C@H](NC(=O)CN)C(=O)NCC(=O)N[C@@H](C)C(=O)N[C@H](C(=O)N[C@@H](CC(C)C)C(=O)N[C@@H](CCCCN)C(=O)N[C@H](C(=O)N[C@@H](CC(C)C)C(=O)N[C@H](C(=O)N[C@H](C(=O)NCC(=O)N[C@@H](CC(C)C)C(=O)N1CCC[C@H]1C(=O)N[C@@H](C)C(=O)N[C@@H](CC(C)C)C(=O)N[C@H](C(=O)N[C@@H](CO)C(=O)N[C@@H](Cc1c[nH]c2ccccc12)C(=O)N[C@H](C(=O)N[C@@H](CCCCN)C(=O)N[C@@H](CCCNC(=N)N)C(=O)N[C@@H](CCCCN)C(=O)N[C@@H](CCCNC(=N)N)C(=O)N[C@@H](CCC(N)=O)C(=O)N[C@@H](CCC(N)=O)C(N)=O)[C@@H](C)CC)[C@@H](C)CC)[C@@H](C)O)[C@@H](C)O)C(C)C)C(C)C` [MELITTIN] returned an MHC of 0.78 µM. In series [3], `CC[C@H](C)[C@H](NC(=O)[C@H](C)NC(=O)[C@H](CCCCN)NC(=O)[C@H](CC(C)C)NC(=O)[C@H](C)NC(=O)[C@@H](NC(=O)[C@H](Cc1c[nH]cn1)NC(=O)[C@H](CC(C)C)NC(=O)[C@@H](NC(=O)[C@@H](NC(=O)[C@H](CCCCN)NC(=O)[C@H](NC(=O)[C@H](C)NC(=O)[C@H](CO)NC(=O)[C@H](CCCCN)NC(=O)[C@H](Cc1ccccc1)NC(=O)[C@@H](NC(=O)[C@H](CCCCN)NC(=O)[C@H](CC(C)C)NC(=O)[C@H](Cc1ccccc1)NC(=O)[C@H](CO)NC(=O)[C@H](CCCCN)NC(=O)[C@H](Cc1c[nH]c2ccccc12)NC(=O)[C@H](CCCCN)NC(C)=O)[C@@H](C)O)C(C)C)[C@@H](C)O)C(C)C)[C@@H](C)O)C(=O)N[C@@H](CO)C(=O)N[C@@H](CO)C(N)=O` (Ac-KWKSFLKTFKSA[dV]KTVLHTALKAISS-NH2) yielded an MHC of 22.2 µM.
